# According to paper PMC4152014, “Glucagon-Like Peptide-1 Receptor Ligand Interactions: Structural Cross Talk between Ligands and the Extracellular Domain” (PLoS ONE, 2014):
# “Also recorded” adds a separate entry of the source.
# Columns and labels:
# [1] = system: nGLP-1R (N-terminal extracellular domain of GLP-1R, amino acids 24-145); assay: Single amino acid resolution HDX by ETD of Phe22-Ser39 peptic peptide; assay type: binding; details: DDM/CHS micelles
# Experimental: To optimize the instrument parameters and to monitor gas-phase scrambling, we employed the model peptide […] described by the Jorgensen group. Complete deuteration was achieved by incubation of the peptide in deuterated buffer (20 mM NaH2PO4, pH 2.6) for one hour at 4°C. HDX off-exchange was initiated by a 10-fold dilution into infusion buffer (50% MeOH, 0.5 M CH3COOH, pH 2.6) followed by elution over the same LC configuration used for HDX after 30 s of off-exchange. Under these conditions the peptide eluted in ∼1.6 minutes. Full-scan and ETD MS/MS spectra were acquired on the LTQ Orbitrap XL ETD. Instrument conditions were identical to those published previously except the capillary temperature was set to 75°C. Varying isolation widths and capillary temperatures were tested to minimize scrambling and maintain ion signal intensity (Figure S3). A capillary temperature of 75°C and isolation width of 12 amu was used for ETD of exendin-4[9-39]. Five replicates were run after 30 s of deuterium exchange for exendin-4[9-39] in the presence and absence of nGLP-1R on the same LC configuration described above.
# [2] = system: nGLP-1R (N-terminal extracellular domain of GLP-1R, amino acids 24-145); assay: Differential HDX of the nGLP-1R peptide […] in the presence of ligands; assay type: binding; details: HDX-MS; for average change in % Deuterium (Δ %D) in nGLP-1R peptide WETVQKWRE: 7TM HDX buffer pH 7.5 (50 mM Hepes, 150 mM NaCl, 2% glycerol, 0.05% DDM, 0.01% CHS), stock 10 µM nGLP-1R, peptide ligands 20 µM or small molecules 100 µM, 1 h equilibration at 4°C, on-exchange 10-3600 s, 80% D2O, 4°C, 3-4 replicates, back exchange corrected with estimated 70% recovery; for protection to exchange of nGLP-1R (result in words): peptides spanning Trp32 to Glu40 of nGLP-1R, DDM/CHS micelles, pH 7.5, 4°C, significance P < 0.05 at two consecutive time points
# Text: (§1) Exendin-4 (cat # E7144), HPLC grade H2O, D2O (99.9%), acetonitrile, formic acid, tris-(carboxyethyl)-phosphinehydrochloride (TCEP), NaCl, NaH2PO4 and glycerol were purchased from Sigma-Aldrich. Exendin-4[9-39] […] The GLP-1R ligands 6-BPPI (6-(2,5-dichlorobenzyl)-1-hydroxy-2-(2-morpholin-4-ylethyl)-1,6-dihydropyrrolo[3′,4′:5,6]pyrido[3,4-B]indol-3(2H)-one), Boc-5 [23], T-0632 (sodium (S)-3-[1-(2-fluorophenyl)-2,3-dihydro-3-[(3-isoquinolinyl-carbonyl)amino]-6-methoxy-2-oxo-1H-indole]propanoate), [25] and TT15 (2S)-2-[[(8S)-7-benzoyl-3-[4-[(3,4-dichlorophenyl)methoxy]phenyl]-2-oxo-1,6,8,9-tetrahydropyrido[4,3-g][1,4]benzoxazine-8-carbonyl]amino]-3-[4-(4-cyanophenyl)phenyl]propanoic acid) were synthesized according to standard or published methods at Eli Lilly. Trifluoroacetic acid (TFA, Sequanal grade) was obtained from Pierce. High purity n-dodecyl-β-D-maltoside (DDM) and cholesterol hemisuccinate (CHS) were purchased from Avanti Polar Lipids. The porcine pepsin-immobilized POROS 20 AL beads (particle size 20 µm) used to pack immobilized pepsin columns were purchased from Applied Biosystems. The model peptide for gas phase scrambling experiments, […], was purchased from the American Peptide Company (#350416).
# [3] = system: extracellular domain of GLP-1R; details: cited from earlier work
# [4] = system: nGLP-1R (N-terminal extracellular domain of GLP-1R, amino acids 24-145); assay: Differential HDX of peptide ligands in the presence vs absence of nGLP-1R; assay type: binding; details: HDX-MS, stock 10 µM peptide with or without 20 µM nGLP-1R, DDM/CHS micelles, pH 7.5, 4°C; for protection to exchange of ligand amides near helix bend / FxxWL motif upon binding nGLP-1R: 10-3600 s, protection confined from Ala18 to Asn28
# Text: as §1
# [5] = pH 7.5
# Experimental: All stock solutions and dilutions were made using the 7TM HDX buffer. The 7TM HDX buffers were composed of 50 mM Hepes (pH 7.5), 150 mM NaCl, 2% (v/v) glycerol, 0.05% (m/v) DDM, and 0.01% (m/v) CHS in either H2O or in D2O for on-exchange. All HDX stock solutions of the N-terminal extracellular domain of the glucagon-like peptide-1 receptor (nGLP-1R) were prepared at 10 µM nGLP-1R in the 7TM HDX H2O buffer. […] All HDX stock solutions of the peptides were at 10 µM. When ligands were studied in the presence of the nGLP-1R the stock solutions contained 20 µM nGLP-1R. When ligands and receptor were mixed in stock solutions they were allowed to equilibrate for one hour at 4°C.
# Solution-phase amide HDX was carried out with a fully automated system described previously [17]. […]
# Mass spectra were acquired in the range of m/z 300–2000 at a resolution of 60,000 for 8 min in positive ion mode on an LTQ Orbitrap XL ETD mass spectrometer (Thermo Fisher Scientific) equipped with an ESI source operated at capillary temperature of 225°C and spray voltage of 3.5 kV. The intensity weighted average m/z value (centroid) of each peptide's isotopic envelope was calculated with in-house developed software; Workbench (Pascal et al. 2013) and converted to % Deuterium values. […]
# [6] = system: chimera nGIP-R:GLP-1R (amino acids 1-124 of GIP-R (NP_000155) fused in-frame with amino acids 137-463 of GLP-1R); assay: cAMP accumulation in HEK293 cells transfected with chimera nGIP-R:GLP-1R; assay type: cell-based; details: GIPR/GLP-1R chimera, EC50 to EC80 concentrations of GLP-1
# Experimental: (§2) cAMP accumulation assays were performed as previously described. HEK293 cells were transfected with plasmids expressing either wild-type GLP-1R (NP_002053) or chimera nGIP-R:GLP-1R (amino acids 1-124 of GIP-R (NP_000155) fused in-frame with amino acids 137-463 of GLP-1R).
# (§3) Figure 4 Changes to HDX of nGLP-1R in the Presence of Peptide and Small Molecule Ligands. […] Deuterium exchange was measured in the presence of DDM/CHS micelles as indicated in the Experimental section The exendin-4[9-39] peptide ligand is colored gray. B) Table showing the average change in % Deuterium in this same nGLP-1R peptide ([…]) for four peptide ligands and four proposed small molecule ligands.
# [7] = biological target: T1, wild-type GLP-1R (NP_002053) (Homo sapiens, UniProt P43220); assay: cAMP accumulation in HEK293 cells transfected with wild-type GLP-1R; assay type: cell-based; details: for IC50: IC50, antagonism of GLP-1 induced cAMP accumulation
# T1 construct: HEK293 cells were transfected with plasmids expressing either wild-type GLP-1R (NP_002053); expressed in transfected cells; host or cells: HEK293
# T1 sequence (P43220 24-463): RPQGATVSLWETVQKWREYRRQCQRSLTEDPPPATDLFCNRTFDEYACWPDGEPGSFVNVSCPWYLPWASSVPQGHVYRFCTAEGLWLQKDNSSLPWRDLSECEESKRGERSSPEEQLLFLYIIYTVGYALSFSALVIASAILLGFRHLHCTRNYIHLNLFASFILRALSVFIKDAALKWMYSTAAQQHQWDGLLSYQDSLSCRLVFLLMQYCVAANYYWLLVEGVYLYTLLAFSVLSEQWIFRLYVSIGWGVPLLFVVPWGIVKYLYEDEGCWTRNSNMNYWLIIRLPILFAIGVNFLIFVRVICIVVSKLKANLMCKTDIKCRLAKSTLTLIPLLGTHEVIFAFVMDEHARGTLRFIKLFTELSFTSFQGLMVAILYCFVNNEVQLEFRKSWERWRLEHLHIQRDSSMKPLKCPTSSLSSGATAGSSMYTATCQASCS
# Experimental: as §2, §3
# [8] = 30 s of exchange, apo vs nGLP-1R bound, 5 replicates
compound,measurement,setting,value
"exendin-4[9-39]: N-terminal truncated exendin-4, a potent antagonist; Bachem cat # H-8740","deuterium incorporation for fragments from Trp25 to Asn28, absence of nGLP-1R","[1]; 30 s of exchange, apo state, 5 replicates",increasing deuterium incorporation for fragments from Trp25 to Asn28
same,change in deuterium incorporation at Asn28 turn in the presence of nGLP-1R,[1]; [8],small but statistically significant increase in deuterium incorporation
same,"protection at Trp25, Leu26 and Lys27 by nGLP-1R",[1]; [8],Significant protection
same,deuterium exchanged at amide of Asn28 in the presence of nGLP-1R,"[1]; exendin-4[9-39] with nGLP-1R, after 30 s of exchange, average of 5 replicates",0.33 deuterium
same,average change in % Deuterium (Δ %D) in nGLP-1R peptide WETVQKWRE,[2],-20%
same,protection to exchange of nGLP-1R (result in words),[2],significant protection to exchange
same,affinity for extracellular domain of GLP-1R (in words),[3],high affinity
same,protection to exchange of ligand amides near helix bend / FxxWL motif upon binding nGLP-1R,[4],showed protection to their hydrogen bonding network around the FxxWL motif
same,deuterium incorporation / stability of hydrogen bonding network of the free peptide,[5],significantly destabilized in the presence of nonionic detergents as compared to the agonist exendin-4
COc1cc(C2C(NC(=O)c3ccc(NC(=O)OC(C)(C)C)cc3)(C(=O)O)C(c3ccc(OC(=O)c4cccs4)c(OC)c3)C2(NC(=O)c2ccc(NC(=O)OC(C)(C)C)cc2)C(=O)O)ccc1OC(=O)c1cccs1 (centres unmarked) [Boc-5],average change in % Deuterium (Δ %D) in nGLP-1R peptide WETVQKWRE,[2],-12%
same,protection to exchange of nGLP-1R (result in words),[2],thermodynamic stabilizing interactions
"oxyntomodulin: peptide agonist, Bachem #H-6058",average change in % Deuterium (Δ %D) in nGLP-1R peptide WETVQKWRE,[2],-10%
same,protection to exchange of nGLP-1R (result in words),[2],protection to exchange was observed
"O=C1c2ncc3c(c2C(O)N1CCN1CCOCC1)c1ccccc1n3Cc1cc(Cl)ccc1Cl (centres unmarked) [6-BPPI, 6-(2,5-dichlorobenzyl)-1-hydroxy-2-(2-morpholin-4-ylethyl)-1,6-dihydropyrrolo[3′,4′:5,6]pyrido[3,4-B]indol-3(2H)-one]",antagonism of GLP-1 signalling (result in words),[6],not GIPR/GLP-1R; also recorded: inactive on a chimeric receptor
same,average change in % Deuterium (Δ %D) in nGLP-1R peptide WETVQKWRE,[2],-27%
same,protection to exchange of nGLP-1R (result in words),[2],thermodynamic stabilizing interactions
same,antagonism of GLP-1 signalling (result in words),"[7]; HEK293 cells, EC50 to EC80 concentrations of GLP-1",Dose-dependent blockade of GLP-1R signalling; also recorded: effective antagonist of the GLP-1R
same,IC50,"[7]; 10 pM GLP-1, HEK293 cells",33 nM
same,IC50,"[7]; 30 pM GLP-1, HEK293 cells",110 nM
same,IC50,"[7]; 100 pM GLP-1, HEK293 cells",310 nM
"exendin-4: GLP-1R peptide agonist, Sigma-Aldrich cat # E7144; DPP4 resistant mimetic",average change in % Deuterium (Δ %D) in nGLP-1R peptide WETVQKWRE,[2],-21%
same,protection to exchange of nGLP-1R (result in words),[2],significant protection to exchange
same,affinity for extracellular domain of GLP-1R (in words),[3],high affinity
same,change in deuterium exchange at N-terminal amino acids His1 to Glu17 upon binding nGLP-1R,[4],no statistically significant change in the magnitude of deuterium exchange
same,protection to exchange of ligand amides near helix bend / FxxWL motif upon binding nGLP-1R,[4],showed protection to their hydrogen bonding network around the FxxWL motif
same,deuterium incorporation / stability of hydrogen bonding network of the free peptide,[5],Lower deuterium incorporation was observed for all homologous peptides
